Test results reported in patent US7378406B2, “Use of antiprogestins for prophylaxis and treatment of hormone-dependent diseases” (Schering AG, priority 2000, dated 2008).

Tests used:
[1] = tested on: DMBA-induced mammary carcinoma of the rat; assay: DMBA-induced breast cancer model in rat (therapy experiment/dose-response study); format: in vivo, rat (female Sprague-Dawley)
Protocol: Immature female Sprague-Dawley rats (49-51 days old; 10 animals/group) were used in this study. Mammary tumors were induced by a single oral administration of 10 mg 7,12-dimethylbenz[a]anthracene (DMBA, Serva/Heidelberg). Rats with at least one established tumor with a size of more than 150 mm^2 were treated for 4 weeks by: 1) solvent control, 2) ovariectomy at treatment start, 3) antiprogestin (I), 0.5 mg/kg s.c., 4) antiprogestin (I), 2 mg/kg s.c., 5) antiprogestin (I), 5 mg/kg s.c., 6) antiprogestin (I), 10 mg/kg s.c., and 7) onapristone, 5 mg/kg, s.c., daily. As a parameter for growth inhibition the change of tumor area (in % with respect to initial tumor size) determined by weekly caliper measurements was used. For statistical analysis of intergroup differences of mean values the Kruskal-Wallis-test was used.

[2] = tested on: NMU-induced mammary carcinoma of the rat; assay: NMU-induced breast cancer model in rat (therapy experiment); format: in vivo, rat (female Sprague-Dawley); details: 4 weeks
Protocol: Tumors were induced by a single intravenous injection of NMU (nitrosomethylurea, 50 mg/kg) in female Sprague-Dawley rats (obtained from Tierzucht Schönwalde, age 50-55 days). Starting 10 days later, rats with at least one established tumor were treated for 4 weeks by: 1) solvent control, 2) ovariectomy at treatment start, 3) antiprogestin (I), 1.0 mg/kg/day, 4) antiprogestin (I), 0.5 mg/kg/day and 5) onapristone, 5 mg/kg/day. As a parameter for growth inhibition the change of tumor area (in % of initial tumor size) determined by weekly caliper measurements was used. For statistical analysis of intergroup differences of mean values the Kruskal-Wallis-test was used.

[3] = tested on: DMBA-induced mammary carcinoma of the rat; assay: DMBA-induced breast cancer model in rat (prevention experiment); format: in vivo, rat (female Sprague-Dawley); details: 6 days/week, start 20 days after DMBA, end of experiment
Protocol: Immature female Sprague-Dawley rats (49-51 days old; 10 animals/group) were used in this study. The carcinogen 7,12-dimethylbenz[a]anthracene (DMBA) was given as a single oral administration (10 mg). Treatment was started 20 days later as followed: 1) solvent control, 2) ovariectomy at treatment start, 3) tamoxifen, 1 mg/kg s.c., 4) antiprogestin (I), 3 mg/kg, s.c., 6 days/week. Rats were examined weekly for breast tumors by palpation. As a parameter for the prophylactic effect the tumor incidence (number of animals/group with tumors in %) was determined. For a further description and evaluation of DMBA and NMU prevention models, see R. G. Metha, European Journal of Cancer 36 (2000), pp. 1275-1282.

[4] = Further endocrine side effects (general statement)
T47D breast cancer cells = assay: T47D human xenograft (therapy experiment); format: in vivo, human xenograft in Fox Chase scid mice; details: 10 mg/kg s.c.; scid mice with estradiol pellets
Protocol: (§1) Female Fox Chase scid mice (M&B) were supplemented with estradiol pellets (Innovative Research of America). T47D breast cancer cells, obtained from cell culture and suspended in matrigel, were implanted s.c. in the inguinal region of the mice. Treatment was started when the tumors were approximately 25 mm^2 in size. Treatment was continued until progression of the tumors. Experimental groups were: 1) control (vehicle), 2) ovariectomy, 3) antiprogestin (I), 10 mg/kg s.c.Tumor area was determined by caliper measurements. The Kruskal Wallis test was used for statistical analysis of intergroup differences of mean values.

MCF7 breast cancer cells = assay: MCF7 human xenograft (therapy experiment); format: in vivo, human xenograft in Fox Chase scid mice; details: 10 mg/kg s.c.; scid mice with estradiol pellets
Protocol: as §1, with “MCF7” for “T47D”, “s.c. Tumor” for “s.c.Tumor”

[5] = Bioavailability (general statement); format: in vivo; details: oral administration
[6] = tested on: NMU-induced mammary carcinoma of the rat; assay: NMU-induced breast cancer model in rat (prevention experiment); format: in vivo, rat (female Sprague-Dawley); details: 3 mg/kg s.c., 6 days/week, start 10 days after NMU; end of experiment, after 27 weeks
Protocol: Tumors were induced by a single intravenous injection of NMU (nitrosomethylurea, 50 mg/kg) in female Sprague-Dawley rats (obtained from Tierzucht Schonwalde, age 50-55 days). Treatment was started 10 days later as followed: 1) solvent control, 2) ovariectomy at treatment start, 3) tamoxifen, 3 mg/kg s.c., 4) antiprogestin (I), 3 mg/kg, s.c., 5) letrozole, 3 mg/kg s.c., 6) raloxifen, 3 mg/kg s.c., 6 days/week. Rats were examined weekly for breast tumors by palpation. As a parameter for the prophylactic effect the tumor incidence (number of animals/group with tumors in %) was determined. For a further description and evaluation of DMBA and NMU prevention models, see R. G. Metha, European Journal of Cancer 36 (2000), pp. 1275-1282.

## CN(C)c1ccc([C@H]2C[C@]3(C)[C@@H](CC[C@]3(O)CCCO)[C@@H]3CCC4=CC(=O)CCC4=C32)cc1 [Onapristone, onapristone, reference compound]
[1]; 5 mg/kg s.c. daily, 4 weeks
  tumor growth inhibition relative to antiprogestin (I): distinctly less effective than antiprogestin (I) at comparable doses
[2]; 5 mg/kg/day
  tumor growth inhibition relative to antiprogestin (I) at 0.5 mg/kg: distinctly less effective than antiprogestin (I)

## CC(=O)c1ccc([C@H]2C[C@@]3(C)[C@@H](CC[C@@]3(O)C(F)(F)C(F)(F)F)[C@@H]3CCC4=CC(=O)CCC4=C32)cc1 [antiprogestin (I), 11β-(4-acetylphenyl)-17β-hydroxy-17α-(1,1,2,2,2-pentafluoroethyl)-estra-4,9-dien-3-one]
[3]; 3 mg/kg s.c., after 22 weeks
  tumor incidence (number of animals/group with tumors in %): 10%
[1]; 0.5 mg/kg s.c. daily, 4 weeks
  tumor growth (change of tumor area) compared with the control: did not significantly prevent the tumor from growing
[1]; 2 mg/kg s.c. daily, 4 weeks
  rats with complete tumor regression: 50%
  tumor growth (change of tumor area), dose-response: maximal growth inhibition
[1]; 10 mg/kg s.c. daily, 4 weeks (highest dose)
  tumor growth (change of tumor area), dose-response: comparable to that of 2 mg/kg
[1]; doses of or above 2 mg/kg s.c. daily, 4 weeks
  tumor growth (change of tumor area) compared with the control: significant inhibition of tumor growth
[4]
  further endocrine side effects, e.g. androgen, estrogen or antiglucocorticoid activity: only very weak, if present at all
T47D breast cancer cells
  tumor growth (tumor area): inhibition of tumor growth, almost comparable to the effect of conventional estrogen deprivation therapy (ovariectomy)
[2]; 0.5 mg/kg/day
  tumor growth (change of tumor area) compared with the control: significant inhibition of tumor growth
[2]; 1.0 mg/kg/day
  tumor growth (change of tumor area) compared with the control: significant inhibition of tumor growth
MCF7 breast cancer cells
  tumor growth (tumor area): inhibition of tumor growth, almost comparable to the effect of conventional estrogen deprivation therapy (ovariectomy)
[5]
  bioavailability: high
[6]
  tumor incidence (number of animals/group with tumors in %): 10%

## CC/C(=C(\c1ccccc1)c1ccc(OCCN(C)C)cc1)c1ccccc1 [tamoxifen, reference compound]
[3]; 1 mg/kg s.c.
  tumor incidence (number of animals/group with tumors in %): 60%
